In patent publication US9163021B2, “Pyrrolo[3,2-c]pyridine tropomyosin-related kinase inhibitors” (Pfizer Limited, priority 2012, dated 2015):

These compounds were tested against TRKA (Homo sapiens (Human), UniProt P04629) (assay: Isolated TRK enzyme assay (HTRF KinEASE-TK), PV3144 TrkA enzyme assay). Settings: arithmetic mean where more than one reading.
Format: biochemical
How it was run: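 Kinase (recombinant His-TrkA cytoplasmic domain, ATP-preactivated 20 min) met compound 20 min, then biotinylated TK substrate (1 µM final) with Mg2+/DTT buffer; HTRF detection.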

Sequence of TRKA (P04629 441-796): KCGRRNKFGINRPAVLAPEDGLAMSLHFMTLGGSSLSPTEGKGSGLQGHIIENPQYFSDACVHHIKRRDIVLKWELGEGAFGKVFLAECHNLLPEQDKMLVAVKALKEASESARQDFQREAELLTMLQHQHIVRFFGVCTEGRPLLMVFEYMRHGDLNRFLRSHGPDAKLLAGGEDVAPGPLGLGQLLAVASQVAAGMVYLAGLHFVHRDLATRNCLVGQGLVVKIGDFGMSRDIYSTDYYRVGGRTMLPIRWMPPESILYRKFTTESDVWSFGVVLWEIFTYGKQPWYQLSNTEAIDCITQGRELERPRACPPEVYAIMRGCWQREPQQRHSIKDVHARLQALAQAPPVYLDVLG

SMILES | IC50 [nM]
Cc1cc(CC(=O)Nc2cncc(C(=O)c3cn(C(C)C)c4ccncc34)c2)[nH]n1 [Example 136, 2(3-methyl-1H-pyrazol-5-yl)-N-(5-{[1-(propan-2-yl)-1H-pyrrolo[3,2-c]pyridin-3-yl]carbonyl}pyridin-3-yl)acetamide] | 268
CC(C)n1cc(C(=O)c2cncc(NC(=O)Cc3cccc(Cl)c3)c2)c2cnccc21 [Example 125, 2-(3-chlorophenyl)-N-(5-{[1-(propan-2-yl)-1H-pyrrolo[3,2-c]pyridin-3-yl]carbonyl}pyridin-3-yl)acetamide] | 707
CC(C)n1ncc(CC(=O)Nc2cc(C(=O)c3cn(C4COC4)c4ccncc34)ccn2)c1C(F)(F)F [Example 201] | 314
CC(C)n1cc(C(=O)c2ccnc(NC(=O)Cc3ccccc3Cl)c2)c2cnccc21 [Example 105, 2-(2-chlorophenyl)-N-(4-{[1-(propan-2-yl)-1H-pyrrolo[3,2-c]pyridin-3-yl]carbonyl}pyridin-2-yl)acetamide] | 108
Cc1oc(C2CC2)nc1CC(=O)Nc1cncc(C(=O)c2cn(C(C)C)c3ccncc23)c1 [Example 19, 2-(2-cyclopropyl-5-methyl-1,3-oxazol-4-yl)-N-(5-{[1-(propan-2-yl)-1H-pyrrolo[3,2-c]pyridin-3-yl]carbonyl}pyridin-3-yl)acetamide] | 26.4
CC(C)n1cc(C(=O)c2ccnc(NC(=O)Cn3cc(Cl)cn3)c2)c2cnccc21 [Example 99, 2-(4-chloro-1H-pyrazol-1-yl)-N-(4-{[1-(propan-2-yl)-1H-pyrrolo[3,2-c]pyridin-3-yl]carbonyl}pyridin-2-yl)acetamide] | 42.9
Cc1cc(C(F)(F)F)nn1CC(=O)Nc1cncc(C(=O)c2cn(C(C)CO)c3c(F)cncc23)c1 (single isomer, unassigned) [Example 228, N-(5-{[7-fluoro-1-(1-hydroxypropan-2-yl)-1H-pyrrolo[3,2-c]pyridin-3-yl]carbonyl}pyridin-3-yl)-2-[5-methyl-3-(trifluoromethyl)-1H-pyrazol-1-yl]acetamide] | 18.5
Cc1cc(C)n(CC(=O)Nc2cc(C(=O)c3cn(CCO)c4ccncc34)ccn2)n1 [Example 152, 2-(3,5-dimethyl-1H-pyrazol-1-yl)-N-(4-{[1-(2-hydroxyethyl)-1H-pyrrolo[3,2-c]pyridin-3-yl]carbonyl}pyridin-2-yl)acetamide] | 2150
Cc1cc(C)n(CC(=O)Nc2cc(C(=O)c3cn(C(C)C)c4ccncc34)ccn2)n1 [Example 164, 2-(3,5-dimethyl-1H-pyrazol-1-yl)-N-(4-{[1-(propan-2-yl)-1H-pyrrolo[3,2-c]pyridin-3-yl]carbonyl}pyridin-2-yl)acetamide] | 33
Cc1cn(CC(=O)Nc2cc(C(=O)c3cn(C(C)C)c4ccncc34)ccn2)nn1 [Example 114, 2-(4-methyl-1H-1,2,3-triazol-1-yl)-N-(4-{[1-(propan-2-yl)-1H-pyrrolo[3,2-c]pyridin-3-yl]carbonyl}pyridin-2-yl)acetamide] | 289

Continued, values first:

IC50 [nM] | SMILES
531 | COCCn1nc(C(C)(C)C)nc1CC(=O)Nc1cncc(C(=O)c2cn(C(C)C)c3ccncc23)c1 [Example 44, 2-[3-tert-butyl-1-(2-methoxyethyl)-1H-1,2,4-triazol-5-yl]-N-(5-{[1-(propan-2-yl)-1H-pyrrolo[3,2-c]pyridin-3-yl]carbonyl}pyridin-3-yl)acetamide]
39.8 | CC(C)(CO)n1cc(C(=O)c2cncc(NC(=O)Cc3ccc(C#N)cc3)c2)c2cncc(F)c21 [Example 92, 2-(4-cyanophenyl)-N-(5-{[7-fluoro-1-(1-hydroxy-2-methylpropan-2-yl)-1H-pyrrolo[3,2-c]pyridin-3-yl]carbonyl}pyridin-3-yl)acetamide]
22.2 | O=C(Cc1ccc(Cl)c(Cl)c1)Nc1cc(C(=O)c2cn(CCO)c3ccncc23)ccn1 [Example 144, 2-(3,4-dichlorophenyl)-N-(4-{[1-(2-hydroxyethyl)-1H-pyrrolo[3,2-c]pyridin-3-yl]carbonyl}pyridin-2-yl)]
2.92 | CC(C)(CO)n1cc(C(=O)c2cncc(NC(=O)Cn3ccc(C(F)(F)F)n3)c2)c2cncc(F)c21 [Example 95, N-(5-{[7-fluoro-1-(1-hydroxy-2-methylpropan-2-yl)-1H-pyrrolo[3,2-c]pyridin-3-yl]carbonyl}pyridin-3-yl)-2-[3-(trifluoromethyl)-1H-pyrazol-1-yl]acetamide]
420 | CC(C)n1ncc(CC(=O)Nc2cc(C(=O)c3cn(CCO)c4ccncc34)ccn2)c1C(F)(F)F [Example 157, N-(4-{[1-(2-hydroxyethyl)-1H-pyrrolo[3,2-c]pyridin-3-yl]carbonyl}pyridin-2-yl)-2-[1-(propan-2-yl)-5-(trifluoromethyl)-1H-pyrazol-4-yl]acetamide]
10100 | CC(C)n1cc(C(=O)c2ccnc(NC(=O)Cn3cncn3)c2)c2cnccc21 [Example 193, N-(4-{[1-(propan-2-yl)-1H-pyrrolo[3,2-c]pyridin-3-yl]carbonyl}pyridin-2-yl)-2-(1H-1,2,4-triazol-1-yl)acetamide]
64 | CC(C)n1cc(C(=O)c2ccnc(NC(=O)Cc3ccccc3)c2)c2cnccc21 [Example 107, 2-phenyl-N-(4-{[1-(propan-2-yl)-1H-pyrrolo[3,2-c]pyridin-3-yl]carbonyl}pyridin-2-yl)acetamide]
1730 | Cc1nonc1CC(=O)Nc1cncc(C(=O)c2cn(C(C)C)c3ccncc23)c1 [Example 40, 2-(4-methyl-1,2,5-oxadiazol-3-yl)-N-(5-{[1-(propan-2-yl)-1H-pyrrolo[3,2-c]pyridin-3-yl]carbonyl}pyridin-3-yl)acetamide]
103 | Cc1nc(CC(=O)Nc2cc(C(=O)c3cn(C(C)C)c4ccncc34)ccn2)cs1 [Example 161, 2-(2-methyl-1,3-thiazol-4-yl)-N-(4-{[1-(propan-2-yl)-1H-pyrrolo[3,2-c]pyridin-3-yl]carbonyl}pyridin-2-yl)acetamide]
305 | O=C(Cc1ccc(F)cc1F)Nc1cc(C(=O)c2cn(CCO)c3ccncc23)ccn1 [Example 145, 2-(2,4-difluorophenyl)-N-(4-{[1-(2-hydroxyethyl)-1H-pyrrolo[3,2-c]pyridin-3-yl]carbonyl}pyridin-2-yl)acetamide]
24.4 | CC(C)n1cc(C(=O)c2ccnc(NC(=O)Cc3ccc(C#N)c(C(F)(F)F)c3)c2)c2cnccc21 [Example 233, 2-[4-cyano-3-(trifluoromethyl)phenyl]-N-(4-{[1-(propan-2-yl)-1H-pyrrolo[3,2-c]pyridin-3-yl]carbonyl}pyridin-2-yl)acetamide]
147 | COc1ccc(CC(=O)Nc2cncc(C(=O)c3cn(C(C)C)c4ccncc34)c2)cc1 [Example 128, 2-(4-methoxyphenyl)-N-(5-{[1-(propan-2-yl)-1H-pyrrolo[3,2-c]pyridin-3-yl]carbonyl}pyridin-3-yl)acetamide]
9.64 | CC(C)n1cc(C(=O)c2cncc(NC(=O)Cc3ccc(Cl)cn3)c2)c2cnccc21 [Example 22, 2-(5-chloropyridin-2-yl)-N-(5-{[1-(propan-2-yl)-1H-pyrrolo[3,2-c]pyridin-3-yl]carbonyl}pyridin-3-yl)acetamide]
138 | N#Cc1ccc(CC(=O)Nc2cc(C(=O)c3cn(C4COC4)c4ccncc34)ccn2)cc1C(F)(F)F [Example 221, 2-[4-cyano-3-(trifluoromethyl)phenyl]-N-(4-{[1-(oxetan-3-yl)-1H-pyrrolo[3,2-c]pyridin-3-yl]carbonyl}pyridin-2-yl)acetamide]
